Assay in all cases: Glasshouse assay for herbicidal activity (pre- and post-emergence), percentage phytotoxicity
Type in all cases: in vivo

The test system of assay [1] is Echinochloa crus-galli (ECHCG). The conditions noted are these: Echinochloa crus-galli, Rate 250 g/ha, 100%=total damage, 0%=no damage. The method, then:
(§1) Test—Glasshouse Assay for Herbicidal Activity
(§2) Seeds of a variety of monocotyledonous and dicotyledonous test plants are sown in standard soil in pots. The plants are cultivated for one day (for pre-emergence (PRE)) or for about 12 days (for post-emergence (POST)) under controlled conditions in a glasshouse (warm climate species at 24/18° C., cool climate species at 20/16° C., both at day/night; 16 hours light; 65% humidity).
(§3) The test plants are then grown on, in a glasshouse (greenhouse) under controlled conditions (warm climate species at 24/18° C., cool climate species at 20/16° C., both at day/night; 16 hours light; 65% humidity) and are watered twice daily. 15 days after application of the test herbicide (15 DAA) (for post-emergence), and 20 days after application of the test herbicide (20 DAA) (for pre-emergence), the test plants are evaluated visually, and an assessed percentage phytotoxicity score is given for each herbicidal application on each plant species (with 100%=total damage to plant; 0%=no damage to plant).
(§4) The plant species tested are as follows: Alopecurus myosuroides (ALOMY), Avena fatua (AVEFA), Lolium perenne (LOLPE), Echinochloa crus-galli (ECHCG).

The subject of assay [2] is Lolium perenne (LOLPE). The conditions noted are these: Lolium perenne, Rate 250 g/ha, 100%=total damage, 0%=no damage. As to the method: as §1, §2, §3, §4
Assay [3] relates to Avena fatua (AVEFA). The conditions noted are these: Avena fatua, Rate 250 g/ha, 100%=total damage, 0%=no damage. As to the method:
as §1, §2, §3, §4

The subject of assay [4] is Alopecurus myosuroides (ALOMY). The conditions noted are these: Alopecurus myosuroides, Rate 250 g/ha, 100%=total damage, 0%=no damage. As to the method:
as §1, §2, §3, §4

The mark [5] stands for this setting: post-emergence, 360 h, post-emergence, assessed visually 15 DAA, read-out: Post-emergence herbicidal activity (percentage phytotoxicity) ECHCG POST.
Setting [6] is: pre-emergence, 480 h, pre-emergence, assessed visually 20 DAA, read-out: Pre-emergence herbicidal activity (percentage phytotoxicity) ECHCG PRE.
Where [7] appears, read: post-emergence, 360 h, post-emergence, assessed visually 15 DAA, read-out: Post-emergence herbicidal activity (percentage phytotoxicity) LOLPE POST.
Setting [8] is: pre-emergence, 480 h, pre-emergence, assessed visually 20 DAA, read-out: Pre-emergence herbicidal activity (percentage phytotoxicity) LOLPE PRE.
Setting [9] is: post-emergence, 360 h, post-emergence, assessed visually 15 DAA, read-out: Post-emergence herbicidal activity (percentage phytotoxicity) AVEFA POST.
[10] abbreviates: pre-emergence, 480 h, pre-emergence, assessed visually 20 DAA, read-out: Pre-emergence herbicidal activity (percentage phytotoxicity) AVEFA PRE.
Setting [11] is: post-emergence, 360 h, post-emergence, assessed visually 15 DAA, read-out: Post-emergence herbicidal activity (percentage phytotoxicity) ALOMY POST.
The mark [12] stands for this setting: pre-emergence, 480 h, pre-emergence, assessed visually 20 DAA, read-out: Pre-emergence herbicidal activity (percentage phytotoxicity) ALOMY PRE.

Read-outs that look alike come from different tables or passages of the source.

With `Cc1cc(-c2ccc(Cl)nn2)cc(C)c1C1C(=O)CC(CC(=O)NCc2cccs2)C1=O` (centres unmarked) [Compound A151], the pest or weed control at 250 g/ha worked out at 70% in assay [1] (setting [5]); 100% in assay [1] (setting [6]); 40% in assay [2] (setting [7]); 80% in assay [2] (setting [8]); 50% in assay [3] (setting [9]); 70% in assay [3] (setting [10]). Also, the pest or weed control at 250 g/ha in assay [4] (setting [11]) and in assay [4] (setting [12]) was 40% in each case.
In the case of `Cc1cnc(CNC(=O)CC2CC(=O)C(c3c(C)cc(-c4ncc(Cl)cc4F)cc3C)C2=O)cn1` (centres unmarked) [Compound A152], the pest or weed control at 250 g/ha is 90% in assay [1] (setting [5]); 100% in assay [1] (setting [6]); 100% in assay [2] (setting [7]); 90% in assay [2] (setting [8]); 100% in assay [3] (setting [9]); 100% in assay [3] (setting [10]). In addition, the pest or weed control at 250 g/ha in assay [4] (setting [11]) is 90%; in assay [4] (setting [12]), 70%.
For `Cc1cc(-c2ccc(C(F)(F)F)cn2)cc(C)c1C1C(=O)CC(CC(=O)NCc2cccc(C(F)(F)F)c2)C1=O` (centres unmarked) [Compound A153], the pest or weed control at 250 g/ha in assay [1] (setting [5]) amounted to 90%; in assay [1] (setting [6]), 90%; in assay [2] (setting [7]), 70%; in assay [2] (setting [8]), 60%; in assay [3] (setting [9]), 90%; in assay [3] (setting [10]), 70%. In addition, the values for the pest or weed control at 250 g/ha in assay [4] (setting [11]) and in assay [4] (setting [12]) were 90% and 30%, respectively.
For `Cc1cc(-c2cc(Cl)ccn2)cc(C)c1C1C(=O)CC(CC(=O)NCc2cccc(C(F)(F)F)c2)C1=O` (centres unmarked) [Compound A154], the pest or weed control at 250 g/ha came out at 100% in assay [1] (setting [5]); 80% in assay [1] (setting [6]); 70% in assay [2] (setting [7]); 80% in assay [2] (setting [8]); 90% in assay [3] (setting [9]); 60% in assay [3] (setting [10]). Further, the pest or weed control at 250 g/ha in assay [4] (setting [11]) turned out to be 80%; in assay [4] (setting [12]), 50%.
Take `Cc1cc(-c2ccc(Cl)nn2)cc(C)c1C1C(=O)CC(CC(=O)NCc2ncccc2Cl)C1=O` (centres unmarked) [Compound A155]: the pest or weed control at 250 g/ha in assay [1] (setting [5]) was determined as 90%; in assay [1] (setting [6]), 70%; in assay [2] (setting [7]), 70%; in assay [2] (setting [8]), 70%; in assay [3] (setting [9]), 70%; in assay [3] (setting [10]), 100%. Besides, the figures for the pest or weed control at 250 g/ha in assay [4] (setting [11]) and in assay [4] (setting [12]) were 50% and 40%, respectively.
For the compound `Cc1cc(-c2ccc(C#N)cn2)cc(C)c1C1C(=O)CC(CC(=O)NCc2cccs2)C1=O` (centres unmarked) [Compound A156], the pest or weed control at 250 g/ha in assay [1] (setting [5]) stood at 100%; in assay [1] (setting [6]), 100%; in assay [2] (setting [7]) it was 80%; in assay [2] (setting [8]) it was 80%; in assay [3] (setting [9]) it was 80%; in assay [3] (setting [10]), 70%. The pest or weed control at 250 g/ha in assay [4] (setting [11]) worked out at 70%; in assay [4] (setting [12]), 60%.
For `Cc1cnc(CNC(=O)CC2CC(=O)C(c3c(C)cc(-c4ncc(F)cn4)cc3C)C2=O)cn1` (centres unmarked) [Compound A157], the pest or weed control at 250 g/ha in assay [1] (setting [5]) is 100%; in assay [1] (setting [6]), 90%; in assay [2] (setting [7]), 90%; in assay [2] (setting [8]), 70%; in assay [3] (setting [9]), 90%; in assay [3] (setting [10]), 70%. Moreover, the pest or weed control at 250 g/ha worked out at 80% in assay [4] (setting [11]) and 60% in assay [4] (setting [12]).
As for `Cc1ccc(-c2cc(C)c(C3C(=O)CC(CC(=O)NCc4cccc(C(F)(F)F)c4)C3=O)c(C)c2)nc1` (centres unmarked) [Compound A158], the pest or weed control at 250 g/ha in assay [1] (setting [5]) worked out at 90%; in assay [1] (setting [6]), 80%; in assay [2] (setting [7]), 80%; in assay [2] (setting [8]) it was 60%; in assay [3] (setting [9]) it was 70%; in assay [3] (setting [10]), 20%. For the same compound, the pest or weed control at 250 g/ha in assay [4] (setting [11]) came out at 70%; in assay [4] (setting [12]), 20%.
As to `Cc1cc(C)c(C2C(=O)CC(CC(=O)N(C)CC(C)C)C2=O)c(C)c1` (centres unmarked) [Compound A159], the pest or weed control at 250 g/ha in assay [1] (setting [5]) is 80%; in assay [1] (setting [6]), 90%; in assay [2] (setting [7]), 90%; in assay [2] (setting [8]) it was 90%; in assay [3] (setting [9]), 50%; in assay [3] (setting [10]), 20%. For the same compound, the pest or weed control at 250 g/ha in assay [4] (setting [11]) worked out at 70%; in assay [4] (setting [12]), 60%.
As for `CCN(C)C(=O)CC1CC(=O)C(c2c(C)cc(C)cc2C)C1=O` (centres unmarked) [Compound A160], the pest or weed control at 250 g/ha in assay [1] (setting [5]) was determined as 90%; in assay [1] (setting [6]), 100%; in assay [2] (setting [7]), 100%; in assay [2] (setting [8]), 100%; in assay [3] (setting [9]), 90%; in assay [3] (setting [10]) it was 80%. The pest or weed control at 250 g/ha in assay [4] (setting [11]) and in assay [4] (setting [12]) was 70% each time.
`Cc1cc(C)c(C2C(=O)CC(CC(=O)N(C)C(C)C)C2=O)c(C)c1` (centres unmarked) [Compound A161]: the pest or weed control at 250 g/ha worked out at 80% in assay [1] (setting [5]); 100% in assay [1] (setting [6]); 90% in assay [2] (setting [7]); 100% in assay [2] (setting [8]); 30% in assay [3] (setting [9]); 30% in assay [3] (setting [10]). In addition, the pest or weed control at 250 g/ha in assay [4] (setting [11]) amounted to 70%; in assay [4] (setting [12]), 20%.
Regarding `Cc1cc(C)c(C2C(=O)CC(CC(=O)N3CCCC3)C2=O)c(C)c1` (centres unmarked) [Compound A162], the pest or weed control at 250 g/ha in assay [1] (setting [5]) amounted to 90%; in assay [1] (setting [6]), 100%; in assay [2] (setting [7]), 100%; in assay [2] (setting [8]), 100%; in assay [3] (setting [9]) it was 90%; in assay [3] (setting [10]), 70%. Further, the pest or weed control at 250 g/ha in assay [4] (setting [11]) came out at 90%; in assay [4] (setting [12]), 70%.
As for `Cc1cc(C)c(C2C(=O)CC(CC(=O)N3CCSCC3)C2=O)c(C)c1` (centres unmarked) [Compound A163], the pest or weed control at 250 g/ha in assay [1] (setting [5]) worked out at 70%; in assay [1] (setting [6]), 70%; in assay [2] (setting [7]), 60%; in assay [2] (setting [8]) it was 60%; in assay [3] (setting [9]), 30%; in assay [3] (setting [10]), 30%. The pest or weed control at 250 g/ha in assay [4] (setting [11]) stood at 30%; in assay [4] (setting [12]) it was 10%.
With `Cc1cc(C)c(C2C(=O)CC(C(C)C(=O)NC(C)(C)C)C2=O)c(C)c1` (centres unmarked) [Compound A164], the pest or weed control at 250 g/ha was found to be 70% in assay [1] (setting [5]); 70% in assay [1] (setting [6]); 60% in assay [2] (setting [7]); 60% in assay [2] (setting [8]); 70% in assay [3] (setting [9]); 10% in assay [3] (setting [10]). In addition, the pest or weed control at 250 g/ha in assay [4] (setting [11]) and in assay [4] (setting [12]) was 70% each time.
With `Cc1cc(C)c(C2C(=O)CC(C(C)C(=O)NCc3cccs3)C2=O)c(C)c1` (centres unmarked) [Compound A165], the pest or weed control at 250 g/ha in assay [1] (setting [5]) was 90%; in assay [1] (setting [6]) it was 100%; in assay [2] (setting [7]), 80%; in assay [2] (setting [8]) it was 70%; in assay [3] (setting [9]) it was 80%; in assay [3] (setting [10]), 0%. Also, the pest or weed control at 250 g/ha in assay [4] (setting [11]) and in assay [4] (setting [12]) was 60% in each case.
As to `Cc1cc(C)c(C2C(=O)CC(C(C)C(=O)NCc3cccc(C(F)(F)F)c3)C2=O)c(C)c1` (centres unmarked) [Compound A166], the pest or weed control at 250 g/ha turned out to be 90% in assay [1] (setting [5]); 70% in assay [1] (setting [6]); 70% in assay [2] (setting [7]); 70% in assay [2] (setting [8]); 70% in assay [3] (setting [9]); 20% in assay [3] (setting [10]). The pest or weed control at 250 g/ha in assay [4] (setting [11]) and in assay [4] (setting [12]) was 40% throughout.

The record behind these values is US10206394B2, “Herbicidal compounds” (Syngenta Participations AG, priority 2014, dated 2019).
